Data published in paper doi:10.1101/2021.12.13.472388v3 (biorxiv, 2022).

Assays:
BRD4-BDI = BRD4-BDI (Homo sapiens, UniProt O60885); assay: HTRF peptide displacement; format: binding; conditions: 6 h, room temperature
CECR2 = CECR2 (Homo sapiens, UniProt Q9BXF3); assay: BROMOscan competition binding; conditions: single dose 1 μM; unreliable (may be per cent of control, direction unclear)
TRIM33 = molecular target: T1, TRIM33 (Homo sapiens, UniProt Q9UPN9); assay: BROMOscan competition binding; conditions: single dose 1 μM; unreliable (may be per cent of control, direction unclear)
T1 sequence (Q9UPN9 882-1087 limits assumed): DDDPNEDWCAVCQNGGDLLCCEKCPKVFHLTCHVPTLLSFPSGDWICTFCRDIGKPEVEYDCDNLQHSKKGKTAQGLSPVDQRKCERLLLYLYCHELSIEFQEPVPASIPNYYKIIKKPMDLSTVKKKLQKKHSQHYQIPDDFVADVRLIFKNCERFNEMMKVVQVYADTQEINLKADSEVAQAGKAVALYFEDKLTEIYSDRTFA

NB4 = assay: cells; parameters: species or system MOLM-14, CCRF-CEM, K-562; conditions: Homo sapiens, NB-4, 72 h, read-out: Cells viability EC50 NB4 (µM)
K-562 = assay: cells; parameters: species or system MOLM-14, CCRF-CEM, NB4; conditions: Homo sapiens, K562, 72 h, read-out: Cells viability EC50 K-562 (µM)

Row | SMILES | IC50 (BRD4-BDI) | also measured
1 | COc1cc(C(=O)C(=Cc2ccncc2)c2nc3ccccc3o2)cc(OC)c1OC [compound 5] | 4.3 ± 0.2 µM | –
2 | CCc1cccc(C)c1NS(=O)(=O)c1cc(-c2c(C)noc2C)ccc1C [compound 3] | 9.3 ± 0.8 µM | –
3 | Cc1ccc(-c2c(C)noc2C)cc1S(=O)(=O)Nc1cccc(C)c1C [compound 2] | 11 ± 0.9 µM | –
4 | CC(=O)N1CCc2c(sc3nc(SCC(=O)Nc4cccnc4C)n(Cc4ccco4)c(=O)c23)C1 [compound 34, 2-((7-Acetyl-3-(furan-2-ylmethyl)-4-oxo-3,4,5,6,7,8-hexahydropyrido[4’,3’:4,5]thieno[2,3-d]pyrimidin-2-yl)thio)-N-(2-methylpyridin-3-yl)acetamide] | 1.3 µM | % inhibition at 1 μM (CECR2): 54%; % inhibition at 1 μM (TRIM33): 52%; EC50 (NB4): > 25 µM; EC50 (K-562): > 25 µM
5 | CC(=O)N1CCc2c(sc3nc(SCC(=O)Nc4cc(Cl)ccc4C)n(Cc4ccco4)c(=O)c23)C1 [compound 1] | 4 ± 0.5 µM | –
6 | Cc1cc(F)ccc1NS(=O)(=O)c1cc(-c2c(C)noc2C)ccc1C [compound 4] | 7.4 ± 0.5 µM | –
7 | O=C1c2ccc(Oc3cccc(Oc4ccc5c(c4)C(=O)N(c4ccc(O)cc4)C5=O)c3)cc2C(=O)N1c1ccc(O)cc1 [compound 7] | 1.1 ± 0.1 µM | –
